Like-named read-outs stand apart in the source and are kept apart here.
Assays:
Zein = details: normalized to SLS as 100%; Stepan Chemical company literature; cited from earlier work
Zein corn protein [1] = assay: Zein test (Zein score, skin irritation potential); details: 1 wt % active surfactant solution
Source text: (§1) Zein score can be measured using a Zein test (Gott, E., Aesthet. Medzin., Tenside 15: 313 (1966)), although other methodologies are known in the art. The Zein test determines the extent of denaturation of Zein corn protein after exposure to a surfactant for a given period of time. The higher the Zein score, the greater the skin irritation potential.
(§2) Zein scores for formulations (or detergent products) described herein refer to Zein scores obtained when a 10% dilution of a given formulation (or detergent product) is tested. Zein scores for individual surfactants refer to Zein scores obtained from testing 1% active surfactant solutions.
(§3) The “test surfactant solution” can be a solution with 1 wt % active surfactant when a surfactant is tested by itself Alternatively, the test surfactant solution can be a 10 wt % dilution of a formulation or product described herein. […] An aliquot (3.0 mL) was accurately measured and removed and set aside in a closed container as a blank solution. […] If all of the Zein protein was dissolved, 1 gram of additional Zein protein was added so that some solid remained undissolved. The mixture was stirred for one hour at room temperature. Undissolved Zein was then removed by filtration to obtain a filtrate solution. A 3.0 ml aliquot of the filtrate solution was accurately measured and placed in a tared aluminum pan and dried in an oven at 70° C. The percent of solids was calculated. Likewise, the blank solution was dried at 70° C. and the solids content of this 3 mL aliquot was determined. The solid weight in the blank solution was subtracted from the solid weight in the filtration solution and the quantity of dissolved Zein in the filtration solution was calculated by difference and reported as g Zein/100 g surfactant solution (also called “% Zein” or “Zein score”).
(§4) As a control, a Zein score was also measured for the Commercial Comparator using a 10% dilution.

Zein corn protein [2] = test system: Zein corn protein
Source text: as §1, §2, §3, §4

| % Zein (g/100 g surfactant solution) (Zein corn protein [2]) | Compound | Normalized Zein Score of Surfactant (Zein) [%] | % Zein (g/100 g surfactant solution) (Zein corn protein [1]) |
| --- | --- | --- | --- |
| – | CCCCCCCCCCC(C(=O)OC)S(=O)(=O)O.[Na] (centres unmarked) [MES, Sodium methyl 2-sulfolaurate] | 68 | – |
| – | CCCCCCCCCCCCOS(=O)(=O)[O-].[Na+] [Sodium lauryl sulfate (SLS), Sodium lauryl sulfate] | – | 2.70 g/100 g surfactant solution |
| – | Disodium Laureth Sulfosuccinate [STEPAN-MILD SL3-BA] | 44 | – |
| 1.55 g/100 g surfactant solution | Methyl ester sulfonate C16-C18 [Methyl ester sulfonate C16-C18 (MES)] | – | – |
| – | Sodium Methyl Cocoyl Taurate [Pureact WS Conc.] | 45 | – |
| 0.56 g/100 g surfactant solution | Cocoamidopropyl betaine [Cocoamidopropyl betaine (CAPB)] | 30 | – |
| – | Sodium C14-16 Olefin Sulfonate (AOS) [BIO-TERGE AS-40] | 75 | – |

Source: patent US20170044471A1, “Sulfate-Free Liquid Laundry Detergent” (The Sun Products Corporation, priority 2015, published 2017)
